Patent publication US20240270762A1, “PENICILLIN-BINDING PROTEIN INHIBITORS” (priority 2021, published 2024)
Converted amounts (≈) assume the structure as drawn.

Tests used:
Format in all cases: cell-based
B. pseudomallei Bp82 = test: microbe, parasite or virus in culture; conditions: Burkholderia pseudomallei, BP82, read-out: Minimum inhibitory concentration, B. pseudomallei Bp82
E. coli AG100 = test: microbe, parasite or virus in culture; conditions: Escherichia coli, AG100, read-out: MIC E. coli AG100
E. coli D22 = test: microbe, parasite or virus in culture; conditions: Escherichia coli, D22, read-out: MIC E. coli D22
P. aeruginosa ATCC 27853 = test: microbe, parasite or virus in culture; conditions: Pseudomonas aeruginosa, ATCC27853, read-out: MIC P. aeruginosa ATCC 27853
[1] = test system: P. aeruginosa (ΔmexAB-oprM); test: Broth microdilution MIC in CAMHB; conditions: Pseudomonas aeruginosa; read-out: MIC P. aeruginosa ΔmexAB-oprM
E. coli AG100A = test: Broth microdilution MIC in CAMHB; conditions: Escherichia coli, read-out: MIC E. coli AG100A
K. pneumoniae 848844 = test: microbe, parasite or virus in culture; conditions: Klebsiella pneumoniae, 848844, read-out: MIC K. pneumoniae 848844
A. baumannii ATCC 19606 = test: microbe, parasite or virus in culture; conditions: Acinetobacter baumannii, ATCC19606, read-out: MIC, A. baumannii ATCC 19606

Compound | MIC (B. pseudomallei Bp82) [µg/mL] | MIC (E. coli AG100) [µg/mL] | MIC (E. coli D22) [µg/mL] | MIC (P. aeruginosa ATCC 27853) [µg/mL] | MIC [1] [µg/mL] | MIC (E. coli AG100A) [µg/mL] | MIC (K. pneumoniae 848844) [µg/mL] | MIC (A. baumannii ATCC 19606) [µg/mL]
O=C(O)c1c(F)ccc2c1OB(O)[C@@H](NC(=O)[C@H](NC(=O)N1CCN(C3CCN(C(=O)c4ccc(O)c(O)c4Cl)CC3)C1=O)c1ccc(P(=O)(O)O)cc1)C2 [Example 494, (R)-3-((R)-2-(3-(1-(2-chloro-3,4-dihydroxybenzoyl)piperidin-4-yl)-2-oxoimidazolidine-1-carboxamido)-2-(4-phosphonophenyl)acetamido)-7-fluoro-2-hydroxy-3,4-dihydro-2H-benzo[e][1,2]oxaborinine-8-carboxylic acid] | < 1 |  |  |  |  |  |  | 
O=C(O)c1c(F)ccc2c1OB(O)[C@@H](NC(=O)[C@H](NC(=O)N1CCN(C3CCN(C(=O)c4cc(O)c(O)c(Cl)c4)CC3)C1=O)c1ccc(P(=O)(O)O)cc1)C2 [Example 496, (R)-3-((R)-2-(3-(1-(3-chloro-4,5-dihydroxybenzoyl)piperidin-4-yl)-2-oxoimidazolidine-1-carboxamido)-2-(4-phosphonophenyl)acetamido)-7-fluoro-2-hydroxy-3,4-dihydro-2H-benzo[e][1,2]oxaborinine-8-carboxylic acid] | < 1 |  |  |  |  |  |  | 
O=C(O)c1c(F)ccc2c1OB(O)[C@@H](NC(=O)[C@H](NC(=O)N1CCN(Cc3ccc(O)c(O)c3Cl)C(=O)C1=O)c1cc(F)c(P(=O)(O)O)c(F)c1)C2 [Example 502, (R)-3-((R)-2-(4-(2-chloro-3,4-dihydroxybenzyl)-2,3-dioxopiperazine-1-carboxamido)-2-(3,5-difluoro-4-phosphonophenyl)acetamido)-7-fluoro-2-hydroxy-3,4-dihydro-2H-benzo[e][1,2]oxaborinine-8-carboxylic acid] | < 1 |  |  |  |  |  |  | 
O=C(NCCN1CCN(C(=O)N[C@@H](C(=O)N[C@H]2Cc3ccc(F)c(C(=O)O)c3OB2O)c2ccc(P(=O)(O)O)cc2)C(=O)C1=O)c1ccc(O)c(O)c1Cl [Example 503, (R)-3-((R)-2-(4-(2-(2-chloro-3,4-dihydroxybenzamido)ethyl)-2,3-dioxopiperazine-1-carboxamido)-2-(4-phosphonophenyl)acetamido)-7-fluoro-2-hydroxy-3,4-dihydro-2H-benzo[e][1,2]oxaborinine-8-carboxylic acid] | < 1 |  |  |  |  |  |  | 
O=C(O)c1c(F)ccc2c1OB(O)[C@@H](NC(=O)C(NC(=O)N1CCN(S(=O)(=O)c3ccc(O)c(O)c3Cl)C1=O)c1ccc(P(=O)(O)O)cc1)C2 (stereo partly drawn) [Example 505, (3R)-3-(2-(3-((2-chloro-3,4-dihydroxyphenyl)sulfonyl)-2-oxoimidazolidine-1-carboxamido)-2-(4-phosphonophenyl)acetamido)-7-fluoro-2-hydroxy-3,4-dihydro-2H-benzo[e][1,2]oxaborinine-8-carboxylic acid] | < 1 | < 1 | < 1 | < 1 | < 1 | < 1 | < 1 | < 1
O=C(O)c1c(F)ccc2c1OB(O)[C@@H](NC(=O)[C@H](NC(=O)N1CCN(S(=O)(=O)c3ccc(O)c(O)c3Cl)C1=O)c1ccc(P(=O)(O)O)cc1)C2 [Example 506, (R)-3-((R)-2-(3-((2-chloro-3,4-dihydroxyphenyl)sulfonyl)-2-oxoimidazolidine-1-carboxamido)-2-(4-phosphonophenyl)acetamido)-7-fluoro-2-hydroxy-3,4-dihydro-2H-benzo[e][1,2]oxaborinine-8-carboxylic acid] | < 1 | < 1 | < 1 | < 1 | < 1 | < 1 | 2 to 4 (≈ 2.64 to 5.29 µM) | < 1
O=C(O)c1cccc2c1OB(O)[C@@H](NC(=O)[C@H](NC(=O)N1CCN(S(=O)(=O)c3ccc(O)c(O)c3Cl)C1=O)c1ccc(P(=O)(O)O)cc1)C2 [Example 509, (R)-3-((R)-2-(3-((2-chloro-3,4-dihydroxyphenyl)sulfonyl)-2-oxoimidazolidine-1-carboxamido)-2-(4-phosphonophenyl)acetamido)-2-hydroxy-3,4-dihydro-2H-benzo[e][1,2]oxaborinine-8-carboxylic acid] | < 1 | < 1 | < 1 | < 1 | < 1 | < 1 | < 1 | < 1
